Source: patent US20240374585A1, “EPITHELIAL SODIUM CHANNEL (ENAC) INHIBITOR CONJUGATES AND METHODS FOR USE THEREOF” (Lung Therapeutics, Inc., priority 2021, published 2024)
Where two headings read alike, the source gives them in different places.

Target: T1, ENaC (Homo sapiens, UniProt P37088+P51168+P51170)
T1 construct: Primary NHBE cells were isolated from bronchi of normal healthy patients; endogenous in cells; host or cells: primary normal human bronchial epithelial (NHBE) cells, differentiated at air-liquid interface
T1 sequence (P37088 1-669): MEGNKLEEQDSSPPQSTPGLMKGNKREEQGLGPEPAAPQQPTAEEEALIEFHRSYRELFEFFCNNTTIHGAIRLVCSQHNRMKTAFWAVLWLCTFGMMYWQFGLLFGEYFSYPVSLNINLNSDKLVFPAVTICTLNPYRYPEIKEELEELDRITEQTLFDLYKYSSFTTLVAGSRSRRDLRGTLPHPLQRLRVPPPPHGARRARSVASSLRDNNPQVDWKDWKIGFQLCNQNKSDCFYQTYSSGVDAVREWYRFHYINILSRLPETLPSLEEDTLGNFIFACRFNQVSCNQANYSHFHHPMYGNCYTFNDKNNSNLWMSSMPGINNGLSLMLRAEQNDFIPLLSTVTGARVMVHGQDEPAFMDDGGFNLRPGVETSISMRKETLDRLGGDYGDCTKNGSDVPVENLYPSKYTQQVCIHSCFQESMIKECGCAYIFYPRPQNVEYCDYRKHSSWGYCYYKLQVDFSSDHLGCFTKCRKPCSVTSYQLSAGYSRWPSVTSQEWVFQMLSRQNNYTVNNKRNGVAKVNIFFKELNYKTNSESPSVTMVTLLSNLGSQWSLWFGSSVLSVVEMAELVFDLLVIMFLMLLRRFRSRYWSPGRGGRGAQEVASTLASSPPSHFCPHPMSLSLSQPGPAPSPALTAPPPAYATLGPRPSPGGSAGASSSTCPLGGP
T1 sequence (P51168 1-640): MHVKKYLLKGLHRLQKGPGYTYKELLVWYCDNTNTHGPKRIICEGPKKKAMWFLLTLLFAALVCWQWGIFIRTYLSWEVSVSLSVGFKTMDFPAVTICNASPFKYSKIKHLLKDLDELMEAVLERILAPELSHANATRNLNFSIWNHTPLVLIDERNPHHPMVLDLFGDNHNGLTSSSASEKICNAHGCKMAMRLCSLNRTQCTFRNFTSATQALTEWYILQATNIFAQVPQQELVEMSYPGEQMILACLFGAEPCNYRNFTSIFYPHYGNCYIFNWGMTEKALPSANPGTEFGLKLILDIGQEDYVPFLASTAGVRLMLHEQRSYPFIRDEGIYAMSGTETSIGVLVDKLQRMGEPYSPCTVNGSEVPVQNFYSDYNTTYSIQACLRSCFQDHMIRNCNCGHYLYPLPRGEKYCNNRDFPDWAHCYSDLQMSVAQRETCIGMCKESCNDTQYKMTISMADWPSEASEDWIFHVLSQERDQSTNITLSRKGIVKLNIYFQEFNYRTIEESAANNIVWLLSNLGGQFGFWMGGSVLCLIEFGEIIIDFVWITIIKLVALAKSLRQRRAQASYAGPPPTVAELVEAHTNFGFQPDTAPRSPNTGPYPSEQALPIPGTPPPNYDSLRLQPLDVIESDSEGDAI
T1 sequence (P51170 1-649): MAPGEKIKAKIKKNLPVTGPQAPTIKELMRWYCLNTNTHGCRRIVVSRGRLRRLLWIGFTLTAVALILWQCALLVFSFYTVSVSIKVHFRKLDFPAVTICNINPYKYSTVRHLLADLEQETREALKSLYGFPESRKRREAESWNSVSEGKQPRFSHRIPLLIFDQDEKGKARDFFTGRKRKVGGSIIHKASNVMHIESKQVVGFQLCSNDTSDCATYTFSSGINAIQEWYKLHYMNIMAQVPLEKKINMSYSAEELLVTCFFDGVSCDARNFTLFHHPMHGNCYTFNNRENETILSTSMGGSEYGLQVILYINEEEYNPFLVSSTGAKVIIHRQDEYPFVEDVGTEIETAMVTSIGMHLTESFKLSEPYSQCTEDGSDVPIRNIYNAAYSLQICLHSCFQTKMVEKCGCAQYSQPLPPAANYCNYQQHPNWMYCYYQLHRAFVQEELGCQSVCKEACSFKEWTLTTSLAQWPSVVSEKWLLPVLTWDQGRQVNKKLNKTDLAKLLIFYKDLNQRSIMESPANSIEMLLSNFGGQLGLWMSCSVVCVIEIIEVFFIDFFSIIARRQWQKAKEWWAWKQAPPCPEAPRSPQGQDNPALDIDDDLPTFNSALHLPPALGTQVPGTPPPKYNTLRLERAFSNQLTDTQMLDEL
Assay: ENaC inhibition in NHBE cell monolayers, Ussing epithelial voltage clamp (short circuit current)
Assay type: cell-based
Protocol: The objective of this study was to measure the ability of the illustrative conjugates to modulate ion transport function of ENAC in normal human bronchial epithelial (NHBE) cell monolayers. Sodium transport function of ENAC expressed in NHBE monolayers was evaluated using an Ussing epithelial voltage clamp apparatus. See, Hirsh et al., J. Pharmacol. Exp. Ther. 2008; 325:77-88, hereby incorporated by reference in its entirety.
Primary NHBE cells were isolated from bronchi of normal healthy patients, expanded in Lonza media (BEGM™ BulletKit™), and plated on Snapwell™ filters to form an epithelium. Cells on Snapwell™ inserts were grown for at least 21 days in Vertex Differentiation media and exposed to an air-liquid interface to promote differentiation. At least one day before the assay, mucous overlaying the apical surface was removed from the inserts by incubating the apical surface for about 30 minutes with ≥200 μL of differentiation media followed by aspiration of the mucous film and media.
The NHBE cell monolayers grown on Snapwell™ filter inserts were transferred to Physiologic Instruments Ussing recording chambers (Physiologic Instruments, Inc., San Diego, CA) and superfused with HB-PS. One or more 6-channel or 8-channel Physiologic Instruments VCC MC6 or VCC MC8 epithelial voltage clamps were used in combination to record short circuit current (ISC) from up to 24 inserts simultaneously. Air was used to operate the bubble lifts to rapidly circulate solutions in each Ussing chamber half and to aerate the monolayers.
Inserts were voltage clamped at 0 m V to record the ISC. Bumetanide (20 μM) was added to the basolateral side of all inserts. Test conjugates prepared as DMSO (Sigma-Aldrich) stocks were added cumulatively and sequentially to the apical Ussing chamber halves with at least 3 minutes between each addition.
Time and volume matched additions of DMSO to the basolateral side of the test conjugate treated inserts and both sides of the vehicle treated inserts was made to maintain osmotic balance across the epithelia. Transepithelial resistance was monitored with small voltage steps. The assay was performed at 35±2° C.
ENaC current at each test conjugate concentration was calculated as the peak current change produced by each test conjugate treated insert minus the mean current change produced by the corresponding DMSO additions to time-matched vehicle controls inserts. Cumulative difference data was fit to a Hill equation of the form: […]
Where IEnaC is the ISC peak difference current measured at each test conjugate concentration [Test].

Structure (SMILES)	IC50 (NHBE cell monolayers, Ussing chamber, apical addition, 35±2° C., read-out: IC50 for the ENaC inhibition) [nM]	IC50 [nM]
CC(=O)N[C@@H](Cc1cn(CCCCNC(N)=NC(=O)c2nc(Cl)c(N)nc2N)nn1)C(=O)NCCCCCC(=O)N[C@H](C(=O)N[C@@H](CO)C(=O)N[C@@H](CCCCN)C(=O)N[C@@H](CCCNC(=N)N)C(=O)N[C@@H](CCCNC(=N)N)C(N)=O)C(C)C [Conjugate 9, Ac-(AmilCC2-Pgy)-Ahx-VSKRR-NH2]	100	
CC(=O)N[C@@H](Cc1cn(CCCCNC(N)=NC(=O)c2nc(Cl)c(N)nc2N)nn1)C(=O)NCCCCCC(=O)N[C@@H](C)C(=O)N[C@@H](CO)C(=O)N[C@@H](Cc1c[nH]cn1)C(=O)N[C@@H](CC(C)C)C(=O)N[C@@H](CCCNC(=N)N)C(=O)N[C@@H](CCCCN)C(=O)N[C@@H](CC(C)C)C(=O)N[C@@H](CCCNC(=N)N)C(=O)N[C@@H](CCCCN)C(=O)N[C@@H](CCCNC(=N)N)C(=O)N[C@@H](CC(C)C)C(=O)N[C@@H](CC(C)C)C(N)=O [Conjugate 8]		60
